Tests used:
[1] = test system: human primary melanocytes; assay: Melanin content of human primary melanocyte cultures treated for ten days, with or without prostaglandin E2; type: cell-based; conditions: FIGS. 1 and 2
Method: Six cultures of human primary melanocytes were grown for four days. Thereafter, the cultures were treated with 10 μL of one of Compositions A-E each day for ten days. Composition A contained 0.005 wt. % of acetyl trifluoromethylphenyl valylglycine, 2 wt. % ethanol, and the remainder being water. Composition B contained 0.05 wt. % of acetyl trifluoromethylphenyl valylglycine, 2 wt. % ethanol, and the remainder being water. Composition C contained 30 nM of prostaglandin E2, 2 wt. % ethanol, and the remainder being water. Composition D contained 0.005 wt. % of acetyl trifluoromethylphenyl valylglycine, 30 nM of prostaglandin E2, 2 wt. % ethanol, and the remainder being water. Composition E contained 0.05 wt. % of acetyl trifluoromethylphenyl valylglycine, 30 nM of prostaglandin E2, 2 wt. % ethanol, and the remainder being water. All weight percentages for Compositions A-E were based on the total weight of the respective composition. […]
After the 10 days, the cells of the culture were lysed and the melanin content was measured. Specifically, the cells were stained with Fontana Masion Staining and measured with a plate reader. A BCA assay was performed to quantify the protein concentration. […] To eliminate the melanin content caused by increased NHEM cell number in the system, the final melanin level was calculated by dividing the protein content in each culture. […]

p38 MAPK = assay: qRT-PCR gene expression of p38 in NHEM after 10 days of treatment; type: cell-based, human; conditions: FIG. 3B
Method: (§1) The efficacy of acetyl trifluoromethylphenyl valylglycine to modulate key gene markers in the inflammatory pathway as it relates to post inflammatory hyperpigmentation conditions was evaluated. Specifically, four well plates were seeded with a single cell culture of normal human epidermal melanocyte (NHEM), and grown in a culture medium (namely, culture medium no. M254500, obtained from ThermoFisher™) and supplemented with Gibco™ human melanocyte growth supplement (namely, Human Melanocyte Growth Supplement-2 no. S0165, obtained from ThermoFisher™) at a density of 10,000 cells/cm^2 for 3 to 4 days.
(§2) The culture medium was then replaced by culture mediums containing different treatments. Specifically, the cell cultures were treated with 10 μL of one of Compositions C-E once a day for ten days (except weekends). After 10 days, the cells were trypsinized and centrifuged at 180×gravity for 7 minutes followed by RNA isolation using a QIAshredder cell lysate homogenizer no. […] The RNA was then quantified using the NanoDrop Spectrophotometer.
(§3) After RNA isolation was completed, samples of 1 μg of RNA from each cell culture was used for cDNA reactions for reverse transcription. […] The ΔΔCt values were then determined for each biological replicate by normalizing to the appropriate untreated control average ΔCt value. The ΔΔCt values were then used to calculate relative quantification (RQ) values.

COX-2 = assay: qRT-PCR gene expression of COX-2 in NHEM after 10 days of treatment; type: cell-based, human; conditions: FIG. 3A
Method: as §1, §2, §3

[2] = test system: co-culture models (Normal Human Epidermal Melanocytes and Normal Human Epidermal Keratinocytes); assay: Melanin synthesis inhibition in co-culture model; type: cell-based; conditions: co-culture on melanocytes and keratinocytes, once a day for 10 days; FIG. 5
Method: (§4) Tri-culture models, co-culture models, and single cell culture models were treated with a composition containing acetyl trifluoromethylphenyl valylglycine to assess the effects on different skin cells. Specifically, the three cultures for each of the tri-culture models (Normal Human Epidermal Melanocytes, Normal Human Epidermal Keratinocytes, and Normal Human Dermal Fibroblast), co-culture models (Normal Human Epidermal Melanocytes and Normal Human Epidermal Keratinocytes), and single cell culture models (Normal Human Epidermal Melanocytes) were grown for four days. The cultures were then treated once a day for 10 days with a composition containing 10% DMSO, water, and lipoic acid (Composition G) in an amount to deposit […] to the cell culture models, a composition containing 10% DMSO, water, and acetyl trifluoromethylphenyl valylglycine (Composition H) in an amount to deposit […] to the cell culture models, or a composition containing 10% DMSO, water, and acetyl trifluoromethylphenyl valylglycine (Composition I) in an amount to deposit […] to the cell culture models. The media for the cultures was changed each day over the ten-day period.
(§5) After the 10 days, the cells of the culture were lysed and the melanin content was measured using a procedure and equipment similar to that described in Example 2. […]

[3] = test system: single cell culture models (Normal Human Epidermal Melanocytes); assay: Melanin synthesis inhibition in single cell culture model; type: cell-based; conditions: FIG. 5
Method: as §4, §5

[4] = test system: tri-culture model (Normal Human Epidermal Melanocytes, Normal Human Epidermal Keratinocytes, and Normal Human Dermal Fibroblast); assay: Melanin synthesis inhibition in tri-culture model; type: cell-based; conditions: 100 μM, tri-culture model (K/M/F), once a day for 10 days; FIG. 5
Method: as §4, §5

[5] = prostaglandin E2 alone (30 nM), NHEM
[6] = with 30 nM prostaglandin E2, NHEM

Compound | melanin production ([1]; prostaglandin E2 alone (30 nM), once a day for ten days) | p38 MAPK expression (p38 MAPK; [5]) | COX-2 expression (COX-2; [5]) | melanin synthesis after induction by prostaglandin E2 ([1]; with 30 nM prostaglandin E2, once a day for ten days, melanin normalised to protein content) | melanin synthesis [2] | inhibitory effect on melanin synthesis relative to tri-culture ([3]; melanocytes cultures compared with tri-culture) | melanin synthesis ([3]; melanocytes cultures, once a day for 10 days) | level of P38 MAPK induced by prostaglandin E2 (p38 MAPK; [6]) | level of COX-2 induced by prostaglandin E2 (COX-2; [6]) | L-Tyrosine-induced melanin synthesis [4]
CCCCC[C@H](O)/C=C/[C@H]1[C@H](O)CC(=O)[C@@H]1C/C=C\CCCC(=O)O [prostaglandin E2, reference compound] | stimulates melanin production | triggered the cascade | triggered the cascade | – | – | – | – | – | – | –
CC(=O)N(c1cccc(C(F)(F)F)c1)C(C(=O)NCC(=O)O)C(C)C (stereo not shown) [acetyl trifluoromethylphenyl valylglycine] | – | – | – | reduces melanin synthesis | did not appear to inhibit melanin synthesis | less than the observed in the tri-culture | an inhibitory effect was observed | significantly attenuated | significantly attenuated | inhibited L-Tyrosine-induced melanin synthesis
